Laboratory results published in patent US20230302154A1, “NANODRUGS FOR TARGETED DRUG DELIVERY AND USE THEREOF” (priority 2020, published 2023).

Experiments:
SH-SY5Y cells [1] = experiment: ROS production (DCF-DA) in SH-SY5Y cells; format: cell-based, human; conditions: 0.01-0.1 mg/mL TFV
Experimental: (§1) As a first approach to predict the inflammatory response on neuronal cells, the ROS production of HMC-3 and SH-SY5Y cells was evaluated. HMC-3 (FIG. 12A) and SH-SY5Y cells (FIG. 12B) were treated with the different drug-to-lipid ratios of 1:20 and 1:4 at varying TFV drug concentrations (0.01-0.1 mg/mL). A negative control antioxidant (catalase) and positive control (H2O2) were used on non-treated cells. A simultaneous setup was also performed for empty NDs at varying lipid concentrations.
(§2) Reactive oxygen species of ND: Reactive oxygen species (ROS) productions in HMC-3 and SH-SY5Y cells following nanodisc treatment were detected using dichlorofluorescein diacetate assay (DCF-DA; Molecular Probes, Eugene, OR). Cells were cultured in 96-well black bottom plates at 100,000 cells per well and incubated at 37° C. in a humidified, 5% CO2 atmosphere for 24 hours to allow for 70% confluence. The following day, cell media was taken out from each well and replenished with 100 μl of PBS+1% FBS. […] A study of FD-TFV was also measured in similar conditions simultaneously. […] Following 2 hours, the first reading of cell ROS production was read in a BioTek Synergy HTH.T. multi-mode microplate reader (BioTek, Winooski, VT, USA) and then taken every hour for the following 18 hours (excitation 485 nm and emission 528 nm; BioTek). […]

[2] = In vitro sustained drug release assay of ND (equilibrium dialysis in PBS, LC-MS/MS); format: physicochemical
Experimental: In vitro sustained drug release assay: The nanodisc formulation's extended drug release profile was determined in phosphate buffer saline (PBS) using an equilibrium dialysis system. The released TFV from the dialysis bag into the outside environment was sampled at different time points up to 14 days and was measured by LC-MS/MS. The dialysis bag used in these experiments was selected for its pore size of 6-8 kDa MWCO. […] Simultaneously, a separate set up with the same concentration and volume of FD-TFV was used as a control. Results were expressed as the percentage of total TFV released into the system compared to the initial concentration. It was observed that 63% of FD-TFV was release within 4 hours. […] (FIG. 14).
In vitro sustained drug release assay of ND: The drug release kinetics of the nanodisc-based drug delivery was determined in PBS using equilibrium dialysis. […] TFV was monitored by LC-MS/MS using an AB Sciex (Framingham, MA) 6500+QTRAP® mass spectrometer coupled to a Shimadzu (Columbia, MD) NexeraX2 LC. […] LC-MS/MS then evaluated the supernatant. […] The limit of quantitation (LOQ) was defined as the lowest concentration at which back-calculation yielded a concentration within 20% of theoretical and above the LOD.

HMC-3 cells [3] = experiment: Cell viability (MTS) assay on HMC-3 cells; format: cell-based, human; conditions: HMC-3, 72 hours, 0.01-0.1 mg/mL
Experimental: (§3) To characterize the nanodisc formulation in the biological system in in vitro conditions, it was necessary to screen the formulation for cytotoxicity and ensure that it would not induce significant cytotoxicity to microglial (HMC-3) and neuronal (SH-SY5Y) cells. […] A cell viability (MTS) study was performed for both 1:20 and 1:4 NDs as per the manufacturer's instruction (G3582, Promega, Madison, WI, USA). Nanodiscs were introduced to these cells separately at varying TFV drug concentrations of 0.01-0.1 mg/mL and incubated for 72 hours.
(§4) Microglia and Neuroblastoma Cell Culture: Human embryonic microglial clone 3 cells (HMC-3) and human neuroblastoma cells (SH-SY5Y) were purchased from the American Type Culture Collection (ATCC) Manassas, VA, USA). The transformed cell lines retain the properties of primary cells. They represent homogeneous cell populations that can be grown indefinitely and might represent a convenient system for their functions' biochemical analysis. Cells were cultured in Eagle's Minimum Essential Medium (EMEM) (ATCC®, Manassas, VA, USA) supplemented with a fetal bovine serum to a final concentration of 10% at 37° C. in a humidified, 5% CO2 atmosphere as recommended by the supplier.
(§5) Cells were cultured in 96-well black bottom plates at 50,000 cells per well and incubated at 37° C. in a humidified, 5% CO2 atmosphere for 24 hours to allow for 70% confluence. […]

[4] = mouse, in vivo, iv, 20 mg/kg
Experimental: PK data analysis was performed using the plasma concentrations of TFV in the mice (FIG. 17). Plasma samples were collected for up to 48 hrs and 72 hours.
An Envigo Teklad Certified Global 18% protein rodent diet, #2018C, and water were provided to the mice ad libitum. Mice were administered a single dose intravenous (iv) dose administration. The average weight of Phase A and Phase B mice were 17.3-18.6 g and 17.2-23.4 g, respectively. All procedures were per the current Association for Assessment and Accreditation of Laboratory Animal Care (AAALAC) recommendations. In vivo studies were carried out in collaboration with NIH-DAIDS Preclinical Contract Services.
During the PK study, 24 males and 24 females used for this phase were divided into two groups (Table 5). […]
TFV was detected with the mass spectrometer in positive MRM (multiple reaction monitoring) mode by following the precursor to fragment ion transitions 288.1 to 176.2 for TFV. A Phenomenex Synergi Polar-RP column (4 microns, 100×2 mm) was used for chromatography with the following conditions: Buffer A: 2% acetic acid in water, Buffer B: 0.1% acetic acid in acetonitrile, 0-2.0 min 2% B, 2.0-2.01 min gradient to 98% B, 2.01-3.5 min gradient to 98% B, and then 3.51-5 min gradient to 2% B. The concentration of drug in each timepoint sample was quantified using Analyst 1.7 software (AB Sciex).

[5] = In vitro sustained drug release assay of liposomal structure (equilibrium dialysis in PBS, NanoDrop); format: physicochemical
Experimental: In order to study the liposome formulation's extended drug release kinetics, a drug release study was done in PBS using an equilibrium dialysis system. […] Liposome 1 has a lipid charge density of 5%. The released TFV from the dialysis bag into the outside environment was sampled at different time points up to 14 days and was measured by a NanoDrop Microvolume Spectrophotometer. Simultaneously, a separate setup with the same concentration and volume of FD-TFV was used as a control. Results were expressed as the cumulative total of TFV released into the system compared to the initial concentration (FIG. 18). […] This downward trend may be caused by byproducts from the FD-TFV in the external environment.

HMC-3 cells [6] = experiment: ROS production (DCF-DA) in HMC-3 cells; format: cell-based, human; conditions: 0.01-0.1 mg/mL TFV
Experimental: as §1, §2

HMC-3 cells [7] = experiment: In vitro cellular uptake study in microglial cells; format: in vitro ADME, human; conditions: HMC-3, 0.0625 mg/mL, monitored over 24 hours
Experimental: Cell uptake and characterization of extended-release from nanodisc: To evaluate the intracellular uptake of TFV in microglial cells an in vitro cellular uptake study was performed. The cellular uptake of the two formulations (1:20 ND and 1:4 ND) and FD-TFV as a control were evaluated simultaneously and the uptake and release of TFV was monitored over 24 hours. […] This small window of cellular uptake may indicate that there is a certain capacity that microglia cells can uptake TFV. […] However, the short windows of drug uptake by the microglial cells could indicate that the size and surface charge of the ND could be a contributing factor.
Cell uptake and characterization of extended-release from ND: Microglial uptake, retention, and release of 1:20 ND, 1:4 ND, and FD-TFV were determined. HMC-3 cells were cultured in 24-well at 50,000 cells per well and incubated at 37° C. in a humidified, 5% CO2 atmosphere for 24 hours to allow for 70% confluence. After 24 hours of cell growth, samples were assigned into different treatment groups of 1:20 ND, 1:4 ND, and FD-TFV and treated at 0.0625 mg/mL concentration. Following drug treatment, samples were incubated at 37° C., and cell uptake was determined every hour over 8 hours and at a 24-hour timepoint. For each sample, media was collected into microcentrifuge tubes and stored at −20° C. for later analysis. […]

SH-SY5Y cells [8] = experiment: Cell viability (MTS) assay on SH-SY5Y cells; format: cell-based, human; conditions: 72 hours, 0.01-0.1 mg/mL
Experimental: as §3, §4, §5

- ROS production compared to the control (SH-SY5Y cells [1]): did not induce a significant increase
- TFV release profile (comparison) ([2]; PBS dialysis, up to 14 days): significantly faster TFV release
- drug release within 4 hours ([2]; PBS, dialysis 6-8 kDa MWCO, 37° C., LC-MS/MS): 63%
- AUCinf values (comparison with ND formulation) [4]: higher
- plasma exposure higher than for ND (mean C0, AUClast and AUCinf) [4]: 2 fold
- drug release of TFV within 4 hours ([5]; NanoDrop spectrophotometer): 100%
- ROS production compared to the control (HMC-3 cells [6]): did not induce a significant increase
- time of maximum uptake (HMC-3 cells [7]): 2 h
Compound: C[C@H](Cn1cnc2c(N)ncnc21)OCP(=O)(O)O [FD-TFV, Tenofovir]
- cytotoxicity compared to the control (HMC-3 cells [3]): not considered to be significantly toxic
- drug release (comparison with liposomes) ([5]; up to 14 days): significantly faster drug release than the liposomes
- cytotoxicity compared to the control (SH-SY5Y cells [8]): not considered to be significantly toxic
